Laboratory results taken from patent US20160113282A1 (HONBU SANKEI CO., LTD., priority 2013, published 2016).
Where “and” joins values, the source holds several entries; their conditions need not be identical. Identical values can stand only once. Like-named read-outs stand apart in the source and are kept apart here.

How the values were obtained:
[1] = test system: Herpes simplex virus type I VR-539; test: Inactivation of herpesviruses, plaque assay on Vero cells; format: cell-based
[2] = test system: influenza viruses; details: pH 6.5 (FIG. 4)
[3] = test system: feline calicivirus F4 strain
[4] = test system: feline calicivirus F4 strain; test: Inactivation of feline caliciviruses (Example 10), plaque assay on CRFK cells; format: cell-based
[5] = test system: influenza virus Type A Aichi strain A/Aichi/68 (H3N2); format: cell-based
[6] = test system: poliovirus type I live vaccine strain

[Na+].[O-]Cl [(4) sodium hypochlorite aqueous solution]
Number of Residual Viruses in Test Solution/Number of Residual Viruses only with Buffer × 100 (%) ([1]; pH 4.5, 200 ppm): below the detectable limit

chlorous acid [Chlorous acid aqueous solution]
contact needed to completely inactivate influenza viruses ([2]; 5 ppm chlorous acid concentration): one minute or less | time after which disinfecting of influenza viruses was almost completed ([2]; 5 ppm upon contact): ~30 s | concentration with disinfecting capability against feline caliciviruses [3]: 400 ppm | ratio of the amount of residual infectious viruses [3]: 0.38 and 0.66 | active chlorine concentration at which feline caliciviruses were inactivated to below the detectable limit [4]: ≥ 200 ppm | effect of pH on inactivation of feline caliciviruses [4]: hardly any effect due to pH | concentration exhibiting a superb sterilizing effect on HSV-I ([1]; pH 4.5-5.5): ≥ 100 ppm | Number of Residual Viruses in Test Solution/Number of Residual Viruses only with Buffer × 100 (%) ([1]; pH 4.5, 10 ppm): 48% | Number of Residual Viruses in Test Solution/Number of Residual Viruses only with Buffer × 100 (%) ([1]; pH 4.5, 50 ppm): 1.3% | Number of Residual Viruses in Test Solution/Number of Residual Viruses only with Buffer × 100 (%) ([1]; pH 4.5, 100 ppm): <0.3% | Number of Residual Viruses in Test Solution/Number of Residual Viruses only with Buffer × 100 (%) ([1]; pH 4.5, 100 ppm, listed as chlorous acid aqueous solution): below the detectable limit | Number of Residual Viruses in Test Solution/Number of Residual Viruses only with Buffer × 100 (%) ([1]; pH 4.5, 150 ppm): <0.2% | Number of Residual Viruses in Test Solution/Number of Residual Viruses only with Buffer × 100 (%) ([1]; pH 4.5, 150 ppm, listed as chlorous acid aqueous solution): below the detectable limit | Number of Residual Viruses in Test Solution/Number of Residual Viruses only with Buffer × 100 (%) ([1]; pH 4.5, 200 ppm): <0.4% | Number of Residual Viruses in Test Solution/Number of Residual Viruses only with Buffer × 100 (%) ([1]; pH 4.5, 200 ppm, listed as chlorous acid aqueous solution): below the detectable limit | Number of Residual Viruses in Test Solution/Number of Residual Viruses only with Buffer × 100 (%) ([1]; pH 5.5, 10 ppm): 100% | Number of Residual Viruses in Test Solution/Number of Residual Viruses only with Buffer × 100 (%) ([1]; pH 5.5, 50 ppm): 12.1% | Number of Residual Viruses in Test Solution/Number of Residual Viruses only with Buffer × 100 (%) ([1]; pH 5.5, 100 ppm): 10.1% | Number of Residual Viruses in Test Solution/Number of Residual Viruses only with Buffer × 100 (%) ([1]; pH 5.5, 150 ppm): <0.2% | Number of Residual Viruses in Test Solution/Number of Residual Viruses only with Buffer × 100 (%) ([1]; pH 5.5, 150 ppm, listed as chlorous acid aqueous solution): below the detectable limit | Number of Residual Viruses in Test Solution/Number of Residual Viruses only with Buffer × 100 (%) ([1]; pH 5.5, 200 ppm): <0.5% | Number of Residual Viruses in Test Solution/Number of Residual Viruses only with Buffer × 100 (%) ([1]; pH 5.5, 200 ppm, listed as chlorous acid aqueous solution): below the detectable limit | Number of Residual Viruses in Test Solution/Number of Residual Viruses only with Buffer × 100 (%) ([1]; pH 6.5, 10 ppm): 100% | Number of Residual Viruses in Test Solution/Number of Residual Viruses only with Buffer × 100 (%) ([1]; pH 6.5, 50 ppm): 63.6% | Number of Residual Viruses in Test Solution/Number of Residual Viruses only with Buffer × 100 (%) ([1]; pH 6.5, 100 ppm): 76.6% | Number of Residual Viruses in Test Solution/Number of Residual Viruses only with Buffer × 100 (%) ([1]; pH 6.5, 150 ppm): 22.2% | Number of Residual Viruses in Test Solution/Number of Residual Viruses only with Buffer × 100 (%) ([1]; pH 6.5, 200 ppm): <0.6% | Number of Residual Viruses in Test Solution/Number of Residual Viruses only with Buffer × 100 (%) ([1]; pH 7.5, 10 ppm): 100% | Number of Residual Viruses in Test Solution/Number of Residual Viruses only with Buffer × 100 (%) ([1]; pH 7.5, 50 ppm): 77.4% | Number of Residual Viruses in Test Solution/Number of Residual Viruses only with Buffer × 100 (%) ([1]; pH 7.5, 100 ppm): 84.7% | Number of Residual Viruses in Test Solution/Number of Residual Viruses only with Buffer × 100 (%) ([1]; pH 7.5, 150 ppm): 55.8% | Number of Residual Viruses in Test Solution/Number of Residual Viruses only with Buffer × 100 (%) ([1]; pH 7.5, 200 ppm): 16.8% | Number of Residual Viruses in Test Solution/Number of Residual Viruses only with Buffer × 100 (%) ([1]; pH 8.5, 10 ppm): 100% | Number of Residual Viruses in Test Solution/Number of Residual Viruses only with Buffer × 100 (%) ([1]; pH 8.5, 50 ppm): 75.3% | Number of Residual Viruses in Test Solution/Number of Residual Viruses only with Buffer × 100 (%) ([1]; pH 8.5, 100 ppm): 98.4% | Number of Residual Viruses in Test Solution/Number of Residual Viruses only with Buffer × 100 (%) ([1]; pH 8.5, 150 ppm): 80% | Number of Residual Viruses in Test Solution/Number of Residual Viruses only with Buffer × 100 (%) ([1]; pH 8.5, 200 ppm): 30% | concentration giving a sufficient effect ([1]; pH of 6.5 or lower (FIG. 2B)): ≥ 200 ppm | concentration giving a sufficient sterilizing effect ([1]; significant at pH of 5.5 or lower (FIG. 2B)): ≥ 50 ppm | concentration at which influenza viruses were inactivated to below the detectable limit ([5]; pH 5.5): ≤ 100 ppm | ratio of the amount of residual infectious viruses ([5]; pH 5.5): 0.34 | infectious viruses decreased to ([5]; pH 6.5): about 1% | ratio of the amount of residual infectious viruses ([5]; pH 6.5): 0.63 | concentration at which viruses were inactivated to about the detectable limit ([5]; pH 7.5): 200 ppm | ratio of the amount of residual infectious viruses ([5]; pH 7.5): 1.16 | virus disinfection effect on influenza viruses ([5]; pH 7.5): significant virus disinfection effect | effect on influenza viruses ([5]; pH 8.5): there is an effect even at pH of 8.5 | ratio of the amount of residual infectious viruses ([5]; pH 8.5): 1.31 | disinfection of polioviruses [6]: disinfection was only observed at pH of 5.5 | concentration at which most polioviruses were disinfected ([6]; pH 5.5): 500 ppm

sodium chlorite [Sodium chlorite aqueous solution]
Number of Residual Viruses in Test Solution/Number of Residual Viruses only with Buffer × 100 (%) ([1]; pH 4.5, 10 ppm): 52% | Number of Residual Viruses in Test Solution/Number of Residual Viruses only with Buffer × 100 (%) ([1]; pH 4.5, 50 ppm): 51.5% | Number of Residual Viruses in Test Solution/Number of Residual Viruses only with Buffer × 100 (%) ([1]; pH 4.5, 100 ppm): 27.6% | Number of Residual Viruses in Test Solution/Number of Residual Viruses only with Buffer × 100 (%) ([1]; pH 4.5, 150 ppm): 34.4% | Number of Residual Viruses in Test Solution/Number of Residual Viruses only with Buffer × 100 (%) ([1]; pH 4.5, 200 ppm): <0.4% | Number of Residual Viruses in Test Solution/Number of Residual Viruses only with Buffer × 100 (%) ([1]; pH 5.5, 10 ppm): 100% | Number of Residual Viruses in Test Solution/Number of Residual Viruses only with Buffer × 100 (%) ([1]; pH 5.5, 50 ppm): 87.3% | Number of Residual Viruses in Test Solution/Number of Residual Viruses only with Buffer × 100 (%) ([1]; pH 5.5, 100 ppm): 93.2% | Number of Residual Viruses in Test Solution/Number of Residual Viruses only with Buffer × 100 (%) ([1]; pH 5.5, 150 ppm): 100% | Number of Residual Viruses in Test Solution/Number of Residual Viruses only with Buffer × 100 (%) ([1]; pH 5.5, 200 ppm): 8.1% | Number of Residual Viruses in Test Solution/Number of Residual Viruses only with Buffer × 100 (%) ([1]; pH 6.5, 10 ppm): 100% | Number of Residual Viruses in Test Solution/Number of Residual Viruses only with Buffer × 100 (%) ([1]; pH 6.5, 50 ppm): 83.6% | Number of Residual Viruses in Test Solution/Number of Residual Viruses only with Buffer × 100 (%) ([1]; pH 6.5, 100 ppm): 87.9% | Number of Residual Viruses in Test Solution/Number of Residual Viruses only with Buffer × 100 (%) ([1]; pH 6.5, 150 ppm): 100% | Number of Residual Viruses in Test Solution/Number of Residual Viruses only with Buffer × 100 (%) ([1]; pH 6.5, 200 ppm): 15.3% | Number of Residual Viruses in Test Solution/Number of Residual Viruses only with Buffer × 100 (%) ([1]; pH 7.5, 10 ppm): 100% | Number of Residual Viruses in Test Solution/Number of Residual Viruses only with Buffer × 100 (%) ([1]; pH 7.5, 50 ppm): 90.4% | Number of Residual Viruses in Test Solution/Number of Residual Viruses only with Buffer × 100 (%) ([1]; pH 7.5, 100 ppm): 100% | Number of Residual Viruses in Test Solution/Number of Residual Viruses only with Buffer × 100 (%) ([1]; pH 7.5, 150 ppm): 100% | Number of Residual Viruses in Test Solution/Number of Residual Viruses only with Buffer × 100 (%) ([1]; pH 7.5, 200 ppm): 10.4% | Number of Residual Viruses in Test Solution/Number of Residual Viruses only with Buffer × 100 (%) ([1]; pH 8.5, 10 ppm): 100% | Number of Residual Viruses in Test Solution/Number of Residual Viruses only with Buffer × 100 (%) ([1]; pH 8.5, 50 ppm): 91.1% | Number of Residual Viruses in Test Solution/Number of Residual Viruses only with Buffer × 100 (%) ([1]; pH 8.5, 100 ppm): 78.2% | Number of Residual Viruses in Test Solution/Number of Residual Viruses only with Buffer × 100 (%) ([1]; pH 8.5, 150 ppm): 94% | Number of Residual Viruses in Test Solution/Number of Residual Viruses only with Buffer × 100 (%) ([1]; pH 8.5, 200 ppm): 7.6% | ratio of the amount of residual infectious viruses ([5]; pH 5.5): 1.07 | residual relative infectivity ([5]; pH 5.5): 1/10 | ratio of the amount of residual infectious viruses ([5]; pH 6.5): 1.19 | ratio of the amount of residual infectious viruses ([5]; pH 7.5): 1.09 | ratio of the amount of residual infectious viruses ([5]; pH 8.5): 1.07
